Reference: patent US7618960B2, “Morpholine type cinnamide compound” (Eisai R&D Management Co., Ltd., priority 2005, dated 2009)

The molecules below were run on Aβ42 production (assay: Quantification of Aβ peptide in culture of neurons from rat fetus brain (Aβ ELISA)). Settings: Neuron, 72 h; rat primary neuronal culture (cerebral cortex, embryonic day 18 Wistar rats); medium collected three days after addition of compound; Aβx-42 ELISA; read-out: Activity for reducing Aβ42 production IC50.
Assay type: cell-based
Method: Quantification of Aβ Peptide in Culture of Neurons from Rat Fetus Brain
(1) Rat Primary Neuronal Culture
Primary neuronal cultures were prepared from the cerebral cortex of embryonic day 18 Wistar rats (Charles River Japan, Yokohama, Japan). Specifically, the embryos were aseptically removed from pregnant rats under ether anesthesia. The brain was isolated from the embryo and immersed in an ice-cold L-15 medium (Invitrogen Corp. Cat #11415-064, Carlsbad, Calif., USA, or SIGMA L1518, for example). The cerebral cortex was collected from the isolated brain under a stereoscopic microscope. The cerebral cortex fragments collected were enzymatically treated in an enzyme solution containing 0.25% trypsin (Invitrogen Corp. Cat #15050-065, Carlsbad, Calif., USA) and 0.01% DNase (Sigma D5025, St. Louis, Mo., USA) at 37° C. for 30 minutes to disperse the cells. Here, the enzymatic reaction was stopped by adding inactivated horse serum to the solution. The enzymatically treated solution was centrifuged at 1,500 rpm for five minutes to remove the supernatant. 5 to 10 ml of a medium was added to the resulting cell mass. Neurobasal medium (Invitrogen Corp. Cat #21103-049, Carlsbad, Calif., USA) supplemented with 2% B27 supplement (Invitrogen Corp. Cat #17504-044, Carlsbad, Calif., USA), 25 μM 2-mercaptoethanol (2-ME, WAKO Cat #139-06861, Osaka, Japan), 0.5 mM L-glutamine (Invitrogen Corp. Cat #25030-081, Carlsbad, Calif., USA), and Antibiotics-Antimycotics (Invitrogen Corp. Cat #15240-062, Carlsbad, Calif., USA) was used as the medium (Neurobasal/B27/2-ME). However, the above Neurobasal medium not supplemented with 2-ME (Neurobasal/B27) was used for the assay. The cells were redispersed by mild pipetting of the cell mass to which the medium was added. The cell dispersion was filtered through a 40-μm nylon mesh (Cell Strainer, Cat #35-2340, Becton Dickinson Labware, Franklin Lakes, N.J., USA) to remove the remaining cell mass, and thus a neuronal cell suspension was obtained. The neuronal cell suspension was diluted with the medium and then plated in a volume of 100 μl/well at an initial cell density of 5×10^5 cells/cm^2 in a 96-well polystyrene culture plate pre-coated with poly-L or D-lysine (Falcon Cat #35-3075, Becton Dickinson Labware, Franklin Lakes, N.J., USA coated with poly-L-lysine using the method shown below, or BIOCOAT™ cell environments Poly-D-lysine cell ware 96-well plate, Cat #35-6461, Becton Dickinson Labware, Franklin Lakes, N.J., USA). Poly-L-lysine coating was carried out as follows. 100 μg/ml of a poly-L-lysine (SIGMA P2636, St. Louis, Mo., USA) solution was aseptically prepared with a 0.15 M borate buffer (pH 8.5). 100 μl/well of the solution was added to the 96-well polystyrene culture plate and incubated at room temperature for one or more hours or at 4° C. overnight or longer. The coated 96-well polystyrene culture plate was washed with sterile water four or more times, and then dried or rinsed with, for example, sterile PBS or medium, and used for cell plating. The plated cells were cultured in the culture plate at 37° C. in 5% […]-95% air for one day. Then, the total amount of the medium was replaced with a fresh Neurobasal™/B27/2-ME medium, and then the cells were cultured for further three days.
The drug was added to the culture plate on Day 4 of culture as follows. The total amount of the medium was removed from the wells, and 180 μl/well of Neurobasal medium not containing 2-ME and containing 2% B-27 (Neurobasal/B27) was added thereto. A solution of the test compound in dimethyl sulfoxide (hereinafter abbreviated as DMSO) was diluted with Neurobasal/B27 so that the initial concentration was at 10-fold of the final concentration. 20 μl/well of the dilution was added to and sufficiently mixed with the medium. The final DMSO concentration was 1% or less. Only DMSO was added to the control group.
The cells were cultured for three days after addition of the compound, and the total amount of the medium was collected. […]
Molecule `COc1cc(/C=C2\OCCN(Cc3cc(F)c(F)c(F)c3)C2=O)ccc1-n1cnc(C)c1` [Example 1, (Z)-2-[1-[3-methoxy-4-(4-methyl-1H-imidazol-1-yl)phenyl]methylidene]-4-(3,4,5-trifluorobenzyl)morpholin-3-one] has an IC50 of 77 nM. `COc1cc(/C=C2\OCCN(Cc3ccc(F)c(F)c3F)C2=O)ccc1-n1cnc(C)c1` [Example 2, (Z)-2-[1-[3-methoxy-4-(4-methyl-1H-imidazol-1-yl)phenyl]methylidene]-4-(2,3,4-trifluorobenzyl)morpholin-3-one] gave an IC50 of 187 nM. In the case of `COc1cc(/C=C2\O[C@@H](C)CN(Cc3cc(F)c(F)c(F)c3)C2=O)ccc1-n1cnc(C)c1` [Example 3, (Z)-(S)-2-[1-[3-methoxy-4-(4-methyl-1H-imidazol-1-yl)phenyl]methylidene]-6-methyl-4-(3,4,5-trifluorobenzyl)morpholin-3-one], the IC50 is reported as 41 nM. With `COc1cc(/C=C2\O[C@H](C)CN(Cc3cc(F)c(F)c(F)c3)C2=O)ccc1-n1cnc(C)c1` [Example 4, (Z)-(R)-2-[1-[3-methoxy-4-(4-methyl-1H-imidazol-1-yl)phenyl]methylidene]-6-methyl-4-(3,4,5-trifluorobenzyl)morpholin-3-one] the IC50 was 69 nM. `COc1cc(/C=C2\O[C@@H](C)CN(Cc3ccc(F)c(F)c3F)C2=O)ccc1-n1cnc(C)c1` [Example 5, (Z)-(S)-2-[1-[3-methoxy-4-(4-methyl-1H-imidazol-1-yl)phenyl]methylidene]-6-methyl-4-(2,3,4-trifluorobenzyl)morpholin-3-one] showed an IC50 of 125 nM. In the case of `COc1cc(/C=C2\O[C@H](C)CN(Cc3ccc(F)c(F)c3F)C2=O)ccc1-n1cnc(C)c1` [Example 6, (Z)-(R)-2-[1-[3-methoxy-4-(4-methyl-1H-imidazol-1-yl)phenyl]methylidene]-6-methyl-4-(2,3,4-trifluorobenzyl)morpholin-3-one], the IC50 is reported as 156 nM. In the case of `COc1cc(/C=C2\OC(C)(C)CN([C@@H](C)c3ccc(F)cc3)C2=O)ccc1-n1cnc(C)c1` [Example 7, (Z)-4-[(S)-1-(4-fluorophenyl)ethyl]-2-[1-[3-methoxy-4-(4-methyl-1H-imidazol-1-yl)phenyl]methylidene]-6,6-dimethylmorpholin-3-one], the IC50 is reported as 76 nM. `COc1cc(/C=C2\O[C@H](C)CN([C@@H](C)c3ccc(F)cc3)C2=O)ccc1-n1cnc(C)c1` [Example 8, (Z)-(R)-4-[(S)-1-(4-fluorophenyl)ethyl]-2-[1-[3-methoxy-4-(4-methyl-1H-imidazol-1-yl)phenyl]methylidene]-6-methylmorpholin-3-one] gave an IC50 of 113 nM. With `COc1cc(/C=C2\O[C@@H](C)CN([C@@H](C)c3ccc(F)cc3)C2=O)ccc1-n1cnc(C)c1` [Example 9, (Z)-(S)-4-[(S)-1-(4-fluorophenyl)ethyl]-2-[1-[3-methoxy-4-(4-methyl-1H-imidazol-1-yl)phenyl]methylidene]-6-methylmorpholin-3-one] the IC50 was 60 nM. In the case of `COc1cc(/C=C2\OCCN([C@@H](C)c3cc(F)c(F)c(F)c3)C2=O)ccc1-n1cnc(C)c1` [Example 10, (Z)-2-[1-[3-methoxy-4-(4-methyl-1H-imidazol-1-yl)phenyl]methylidene]-4-[(S)-1-(3,4,5-trifluorophenyl)ethyl]morpholin-3-one], the IC50 is reported as 84 nM. `COc1cc(/C=C2\OC(C)(C)CN([C@H]3CCOc4ccccc43)C2=O)ccc1-n1cnc(C)c1` [Example 12, (Z)-4-[(S)-chroman-4-yl]-2-[1-[3-methoxy-4-(4-methyl-1H-imidazol-1-yl)phenyl]methylidene]-6,6-dimethylmorpholin-3-one] showed an IC50 of 101 nM. `COc1cc(/C=C2\O[C@@H](C)CN([C@H]3CCOc4ccccc43)C2=O)ccc1-n1cnc(C)c1` [Example 13, (Z)-(S)-4-[(S)-chroman-4-yl]-2-[1-[3-methoxy-4-(4-methyl-1H-imidazol-1-yl)phenyl]methylidene]-6-methylmorpholin-3-one] gave an IC50 of 129 nM. `COc1cc(/C=C2\O[C@H](C)CN([C@H]3CCOc4ccccc43)C2=O)ccc1-n1cnc(C)c1` [Example 14, (Z)-(R)-4-[(S)-chroman-4-yl]-2-[1-[3-methoxy-4-(4-methyl-1H-imidazol-1-yl)phenyl]methylidene]-6-methylmorpholin-3-one] was tested, and the IC50 was 146 nM. Work on `COc1cc(/C=C2\O[C@@H](C)CN([C@@H](C)c3ccc(Cl)nc3)C2=O)ccc1-n1cnc(C)c1` [Example 18, (Z)-(S)-4-[(S)-1-(6-chloropyridin-3-yl)ethyl]-2-[1-[3-methoxy-4-(4-methyl-1H-imidazol-1-yl)phenyl]methylidene]-6-methylmorpholin-3-one] yielded an IC50 of 183 nM. Molecule `COc1cc(/C=C2\O[C@@H](C)CN([C@H](C)c3ccc(Cl)nc3)C2=O)ccc1-n1cnc(C)c1` [Example 19, (Z)-(S)-4-[(R)-1-(6-chloropyridin-3-yl)ethyl]-2-[1-[3-methoxy-4-(4-methyl-1H-imidazol-1-yl)phenyl]methylidene]-6-methylmorpholin-3-one] has an IC50 of 54 nM. `COc1cc(/C=C2\O[C@@H](C)CN([C@@H](C)c3ccc(Cl)cn3)C2=O)ccc1-n1cnc(C)c1` [Example 20, (Z)-(S)-4-[(S)-1-(5-chloropyridin-2-yl)ethyl]-2-[1-[3-methoxy-4-(4-methyl-1H-imidazol-1-yl)phenyl]methylidene]-6-methylmorpholin-3-one] gave an IC50 of 82 nM. With `COc1cc(/C=C2\O[C@@H](C)CN([C@H](C)c3ccc(Cl)cn3)C2=O)ccc1-n1cnc(C)c1` [Example 21, (Z)-(S)-4-[(R)-1-(5-chloropyridin-2-yl)ethyl]-2-[1-[3-methoxy-4-(4-methyl-1H-imidazol-1-yl)phenyl]methylidene]-6-methylmorpholin-3-one] the IC50 was 195 nM. `COc1cc(/C=C2\O[C@@H](C)CN([C@@H](C)c3ccc(F)nc3F)C2=O)ccc1-n1cnc(C)c1` [Example 22, (Z)-(S)-4-[(S)-1-(2,6-difluoropyridin-3-yl)ethyl]-2-[1-[3-methoxy-4-(4-methyl-1H-imidazol-1-yl)phenyl]methylidene]-6-methylmorpholin-3-one] gave an IC50 of 30 nM. Molecule `COc1cc(/C=C2\O[C@@H](C)CN([C@H](C)c3ccc(F)nc3F)C2=O)ccc1-n1cnc(C)c1` [Example 23, (Z)-(S)-4-[(R)-1-(2,6-difluoropyridin-3-yl)ethyl]-2-[1-[3-methoxy-4-(4-methyl-1H-imidazol-1-yl)phenyl]methylidene]-6-methylmorpholin-3-one] has an IC50 of 130 nM. `COc1cc(/C=C2\O[C@@H](C)CN([C@@H](C)c3ccnc(F)c3F)C2=O)ccc1-n1cnc(C)c1` [Example 24, (Z)-(S)-4-[(S)-1-(2,3-difluoropyridin-4-yl)ethyl]-2-[1-[3-methoxy-4-(4-methyl-1H-imidazol-1-yl)phenyl]methylidene]-6-methylmorpholin-3-one] showed an IC50 of 36 nM. Molecule `COc1cc(/C=C2\O[C@@H](C)CN([C@H](C)c3ccnc(F)c3F)C2=O)ccc1-n1cnc(C)c1` [Example 25, (Z)-(S)-4-[(R)-1-(2,3-difluoropyridin-4-yl)ethyl]-2-[1-[3-methoxy-4-(4-methyl-1H-imidazol-1-yl)phenyl]methylidene]-6-methylmorpholin-3-one] has an IC50 of 141 nM.

Same assay, conditions: rat primary neuronal culture (cerebral cortex, embryonic day 18 Wistar rats); medium collected three days after addition of compound; Aβx-42 ELISA; read-out: Activity for reducing Aβ42 production IC50
Work on `COc1cc(/C=C2\OC[C@H]3CCC[C@@H](c4ccc(F)cc4)N3C2=O)ccc1-n1cnc(C)c1` [Example 16] yielded an IC50 of 201 nM.
